IC50 data for 32 compounds are collected here from patent US9090593B2, “Bicyclic compounds as Pim inhibitors” (AMGEN INC., priority 2010, dated 2015).

For assay [1], the target named is T1, full length recombinant Pim-1 protein (Homo sapiens, UniProt P11309).
T1 construct: by full length recombinant Pim-1, Pim-2, or Pim-3 protein; hexahistidine tag followed by a thrombin cleavage site (N); made in house; host or cells: Sf9 (baculovirus) or E. coli (pET28)
Kind of assay: Pim-1 enzyme assay (HTRF, phosphorylation of biotinylated-BAD (S112) peptide). Type of assay: biochemical. The conditions noted are these: read-out: Pim_1_IC50. The method, boiled down:
(§1)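 Full-length His-tagged Pim-1 or Pim-2 (Sf9 or E. coli expressed, purified) phosphorylated biotinylated BAD (S112) peptide in 60 mM Hepes pH 7.0, 0.05% BSA, 2 mM DTT. Reaction stopped with 3 mM EDTA; phospho-BAD read by HTRF with Eu anti-phospho-BAD antibody and streptavidin-APC. IC50 from percent of control by 4-parameter logistic fit.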
On the technique in general: TR-FRET usually uses a lanthanide donor and a delayed reading to cut background.

Assay [2] concerns the target T2, full length recombinant Pim-2 protein (Homo sapiens, UniProt Q9P1W9).
T2 construct: by full length recombinant Pim-1, Pim-2, or Pim-3 protein; hexahistidine tag followed by a thrombin cleavage site (N); made in house; host or cells: Sf9 (baculovirus) or E. coli (pET28)
Description: Pim-2 enzyme assay (HTRF, phosphorylation of biotinylated-BAD (S112) peptide). The format is biochemical. The conditions noted are these: read-out: Pim2_IC50. The method, boiled down: as §1

Assay [3] concerns the target T3, Pim-1 stably transfected into the U2OS human osteogenic sarcoma line (Homo sapiens, UniProt P11309).
T3 construct: expressed in transfected cells; host or cells: U2OS human osteogenic sarcoma line
Description: Pim cell assay, phospho-BAD normalized against total BAD, U2OS stably transfected with Pim-1. The format is cell-based. The conditions noted are these: U2OS stably transfected with Pim-1; phospho-BAD normalized against total BAD; 29 min incubation; read-out: Pim1_Cell_IC50_. In short, it runs like this:
(§2)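 U2OS cells stably expressing Pim-1 or Pim-2 were plated overnight at 37 °C, then dosed over a 10-point curve (final 0.3% DMSO; DMSO alone as high control). Lysates assayed for phospho- and total BAD by Meso Scale immunoassay; % phosphoprotein = (2×phospho)/(phospho+total)×100.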

In assay [4] the target is T4, Pim-2 stably transfected into the U2OS human osteogenic sarcoma line (Homo sapiens, UniProt Q9P1W9).
T4 construct: expressed in transfected cells; host or cells: U2OS human osteogenic sarcoma line
Kind of assay: Pim cell assay, phospho-BAD normalized against total BAD, U2OS stably transfected with Pim-2. The format is cell-based. The conditions noted are these: U2OS stably transfected with Pim-2; phospho-BAD normalized against total BAD; 29 min incubation; read-out: Pim2_Cell_IC50_. In short, it runs like this: as §2

T1 sequence (P11309 whole entry): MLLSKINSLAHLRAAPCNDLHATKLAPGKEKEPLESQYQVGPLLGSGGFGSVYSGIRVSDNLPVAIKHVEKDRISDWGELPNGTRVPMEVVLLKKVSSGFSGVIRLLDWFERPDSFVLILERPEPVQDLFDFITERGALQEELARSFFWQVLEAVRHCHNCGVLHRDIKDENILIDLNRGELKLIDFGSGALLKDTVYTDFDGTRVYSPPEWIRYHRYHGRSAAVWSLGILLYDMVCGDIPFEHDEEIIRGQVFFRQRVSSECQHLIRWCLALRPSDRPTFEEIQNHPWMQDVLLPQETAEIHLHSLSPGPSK
T3 sequence (P11309 whole entry): as above
T2 sequence (Q9P1W9 whole entry): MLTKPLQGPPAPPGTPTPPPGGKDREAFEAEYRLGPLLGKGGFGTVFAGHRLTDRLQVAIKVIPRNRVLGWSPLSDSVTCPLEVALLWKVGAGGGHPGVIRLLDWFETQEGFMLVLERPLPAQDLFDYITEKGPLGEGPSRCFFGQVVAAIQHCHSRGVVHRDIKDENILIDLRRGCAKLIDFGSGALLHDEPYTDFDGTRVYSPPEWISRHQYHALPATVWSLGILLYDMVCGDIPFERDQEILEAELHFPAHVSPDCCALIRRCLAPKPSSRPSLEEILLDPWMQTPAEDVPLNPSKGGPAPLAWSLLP
T4 sequence (Q9P1W9 whole entry): as above

As for `c1cc(-c2ccc3[nH]nc(-c4cncc(O[C@@H]5CCCNC5)n4)c3c2)nc(C2CC2)n1` [Example 361], the IC50 is 12 nM in assay [1], 71 nM in assay [2], 2070 nM in assay [3] and over 31600 nM in assay [4].

Take `CC(C)NC(=O)c1ccc(F)c(-c2ccc3[nH]nc(-c4cncc(N[C@@H]5CCCNC5)n4)c3c2)c1` [Example 362]: the IC50 in assay [1] is 3 nM; in assay [2] it was 7 nM; in assay [3], 864 nM; in assay [4] it was 4150 nM.

As to `CC(O)c1cccc(-c2ccc3[nH]nc(-c4cncc(O[C@@H]5CCCNC5)n4)c3c2)c1` (some centres unmarked) [Example 367], the IC50 in assay [1] turned out to be 14 nM; in assay [2], 27 nM; in assay [3], 868 nM; in assay [4], 8800 nM.

For `CC(C)Nc1cncc(-c2n[nH]c3ccc(-c4cncc(C5CC5)n4)cc23)n1` [Example 368, 6-(5-(6-cyclopropyl-2-pyrazinyl)-1H-indazol-3-yl)-N-(1-methylethyl)-2-pyrazinamine], the IC50 in assay [1] was 6 nM; in assay [2] it was 37 nM; in assay [3], 23 nM; in assay [4] it was 1770 nM.

In the case of `c1cc2[nH]nc(-c3cncc(OC4CCNCC45CC5)n3)c2cc1-c1cncc(C2CC2)n1` (centres unmarked) [Example 372], the IC50 in assay [1] is 1 nM; in assay [2], 7 nM; in assay [3], 200 nM; in assay [4], over 10000 nM.

In the case of `c1cc2[nH]nc(-c3cncc(O[C@@H]4CCNCC45CC5)n3)c2cc1-c1cncc(C2CC2)n1` [Example 373, 3-(6-((8R)-5-azaspiro[2.5]oct-8-yloxy)-2-pyrazinyl)-5-(6-cyclopropyl-2-pyrazinyl)-1H-indazole], the IC50 came out at 1 nM in assay [1], 5 nM in assay [2], 130 nM in assay [3] and 3370 nM in assay [4].

As to `c1cc2[nH]nc(-c3cncc(O[C@H]4CCNCC45CC5)n3)c2cc1-c1cncc(C2CC2)n1` [Example 374, 3-(6-((8S)-5-azaspiro[2.5]oct-8-yloxy)-2-pyrazinyl)-5-(6-cyclopropyl-2-pyrazinyl)-1H-indazole], the IC50 in assay [1] came out at 1 nM; in assay [2], 17 nM; in assay [3], 312 nM; in assay [4], 8090 nM.

Regarding `COc1cncc(-c2n[nH]c3ccc(-c4cncc(C5CC5)n4)cc23)n1` [Example 379], the IC50 in assay [1] is 2 nM; in assay [2] it was 16 nM; in assay [3], 657 nM; in assay [4] it was over 31600 nM.

In the case of `CC(C)Oc1cncc(-c2n[nH]c3ccc(-c4cncc(C5CC5)n4)cc23)n1` [Example 381], the IC50 in assay [1] was 4 nM; in assay [2], 37 nM; in assay [3], 772 nM; in assay [4], over 31600 nM.

Turning to `COc1cncc(-c2n[nH]c3ccc(-c4cncc(NC5CC5)n4)cc23)n1` [Example 383, N-cyclopropyl-6-(3-(6-methoxy-2-pyrazinyl)-1H-indazol-5-yl)-2-pyrazinamine], the IC50 was 1 nM in assay [1], 10 nM in assay [2], 44 nM in assay [3] and 21800 nM in assay [4].

As to `FCCOc1cncc(-c2n[nH]c3ccc(-c4cncc(C5CC5)n4)cc23)n1` [Example 384], the IC50 in assay [1] was 4 nM; in assay [2] it was 27 nM; in assay [3], 207 nM; in assay [4] it was over 31600 nM.

`Nc1cncc(-c2ccc3[nH]nc(-c4cncc(OCCF)n4)c3c2)n1` [Example 386, 6-(3-(6-(2-fluoroethoxy)-2-pyrazinyl)-1H-indazol-5-yl)-2-pyrazinamine]: the IC50 in assay [1] is 6 nM; in assay [2], 11 nM; in assay [3], 61 nM; in assay [4], over 31600 nM.

`c1cc2[nH]nc(-c3cncc(NC4CC4)n3)c2cc1-c1cncc(C2CC2)n1` [Example 391, N-cyclopropyl-6-(5-(6-cyclopropyl-2-pyrazinyl)-1H-indazol-3-yl)-2-pyrazinamine]: the IC50 is 2 nM in assay [1], 12 nM in assay [2], 114 nM in assay [3] and over 10000 nM in assay [4].

On to `CC(C)(O)CNc1cncc(-c2n[nH]c3ccc(-c4cncc(C5CC5)n4)cc23)n1` [Example 392], for which the IC50 is 13 nM in assay [1], 66 nM in assay [2], 212 nM in assay [3] and over 10000 nM in assay [4].

With `c1cc2[nH]nc(-c3cncc(O[C@H]4CNCCC45CC5)n3)c2cc1N1CCOCC1` [Example 400], the IC50 in assay [1] worked out at 17 nM; in assay [2], 25 nM; in assay [3], 1130 nM; in assay [4] it was 8650 nM.

As to `Cc1ccccc1-c1ccc2[nH]nc(-c3cncc(O[C@H]4CNCCC45CC5)n3)c2c1` [Example 404], the IC50 in assay [1] is 9 nM; in assay [2], 19 nM; in assay [3], 2580 nM; in assay [4], over 15800 nM.

For `FC(F)(F)c1ccccc1-c1ccc2[nH]nc(-c3cncc(O[C@H]4CNCCC45CC5)n3)c2c1` [Example 407], the IC50 in assay [1] is 20 nM; in assay [2], 51 nM; in assay [3] it was 2070 nM; in assay [4] it was over 15800 nM.

Consider `Brc1ccc2[nH]nc(-c3cncc(O[C@@H]4CNCCC45CC5)n3)c2c1` [Example 421], for which the IC50 is 19 nM in assay [1], 50 nM in assay [2], 1150 nM in assay [3] and 31700 nM in assay [4].

As for `CC(C)OC(=O)c1ccc2[nH]nc(-c3cncc(N4CCC(N)CC4)n3)c2c1` [Example 470], the IC50 was 2 nM in assay [1], 8 nM in assay [2], 204 nM in assay [3] and 8790 nM in assay [4].

For the compound `COC(=O)c1ccc2[nH]nc(-c3cncc(N[C@@H]4CCCNC4)n3)c2c1` [Example 473], the IC50 in assay [1] stood at 4 nM; in assay [2], 44 nM; in assay [3] it was 221 nM; in assay [4], 9630 nM.

For `CC(C)OC(=O)c1ccc2[nH]nc(-c3cncc(N[C@@H]4CCCNC4)n3)c2c1` [Example 474, 1-methylethyl 3-(6-((3R)-3-piperidinylamino)-2-pyrazinyl)-1H-indazole-5-carboxylate], the IC50 in assay [1] was 2 nM; in assay [2], 52 nM; in assay [3] it was 108 nM; in assay [4] it was 14600 nM.

Turning to `COC(=O)c1ccc2[nH]nc(-c3cncc(O[C@@H]4CCCNC4)n3)c2c1` [Example 476], the IC50 came out at 18 nM in assay [1], 144 nM in assay [2], 588 nM in assay [3] and 31600 nM in assay [4].

Take `CC(C)OC(=O)c1ccc2[nH]nc(-c3cncc(O[C@@H]4CCCNC4)n3)c2c1` [Example 477]: the IC50 in assay [1] came to 8 nM; in assay [2], 126 nM; in assay [3], 348 nM; in assay [4], 20300 nM.

On to `NC1CCN(c2cc(O)nc(-c3n[nH]c4ccc(-c5c(F)cccc5F)cc34)n2)CC1` [Example 482], for which the IC50 in assay [1] is 1 nM; in assay [2], 4 nM; in assay [3] it was 1200 nM; in assay [4], over 31600 nM.

Consider `Oc1cc(-c2c[nH]c3ccc(-c4c(F)cccc4F)cc23)nc(N2CCOCC2)n1` [Example 483], for which the IC50 in assay [1] was 4 nM; in assay [2] it was 32 nM; in assay [3] it was 219 nM; in assay [4] it was over 31600 nM.

As for `COC(=O)c1ccc2[nH]nc(-c3ccnc(N[C@@H]4CCCNC4)n3)c2c1` [Example 490], the IC50 is 13 nM in assay [1], 54 nM in assay [2], 522 nM in assay [3] and over 15800 nM in assay [4].

As for `COc1cc(-c2n[nH]c3ccc(-c4c(F)cccc4F)cc23)nc(N2CCC(N)CC2)n1` [Example 506], the IC50 in assay [1] was 15 nM; in assay [2], 33 nM; in assay [3], 3740 nM; in assay [4] it was over 31600 nM.

For `NC1CCN(c2cncc(-c3n[nH]c4ccc(-c5nccc6[nH]ccc56)cc34)n2)CC1` [Example 507], the IC50 in assay [1] was 3 nM; in assay [2], 65 nM; in assay [3], over 31600 nM; in assay [4], over 31600 nM.

For `CC(C)Oc1cncc(-c2ccc3[nH]cc(-c4nnc(N5CCC[C@H](N)C5)o4)c3c2)n1` [Example 510], the IC50 in assay [1] is 17 nM; in assay [2], 78 nM; in assay [3], 1010 nM; in assay [4], over 31600 nM.

As to `Oc1cc(N[C@@H]2CCCNC2)nc(-c2c[nH]c3ccc(-c4c(F)cccc4F)cc23)n1` [Example 515], the IC50 in assay [1] is 3 nM; in assay [2], 7 nM; in assay [3] it was 12000 nM; in assay [4], over 31600 nM.

Regarding `NC1CCN(c2ccnc(-c3n[nH]c4ccc(-c5c(F)cccc5F)cc34)n2)CC1` [Example 516], the IC50 is 6 nM in assay [1], 142 nM in assay [2], 861 nM in assay [3] and over 31600 nM in assay [4].

Regarding `NC1CCN(c2cncc(-c3c[nH]c4ccc(-c5cncc(C6CC6)n5)cc34)n2)CC1` [Example 517], the IC50 in assay [1] is 2 nM; in assay [2] it was 65 nM; in assay [3], 176 nM; in assay [4], over 31600 nM.
